Experimental data as given in the supplement of paper PMC11616607.

test system: HOSE2C; experiment: drug sensitivity score (DSS) from 5-point dose-response viability curve (DSS (area-under-curve based score)); higher = more sensitive (stronger growth inhibition or killing); extreme values may be limits of the assay; conditions: exposure time: 72 h; concentration range: 5 concentrations over 10,000-fold range
Method in brief: (§1)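 For the drug sensitivity score, obtained per cell line and drug in Breeze software, larger values mean greater sensitivity. No response corresponds to a score of zero. Ovarian cancer and normal ovarian cells were seeded at 1,500 per well into 384-well plates already holding acoustically dispensed drugs (Echo 550, DMSO or water, five concentrations over a 10,000-fold range) and incubated 3 days at 37°C, 5% CO2. CellTiter-Glo luminescence on a PHERAstar FS gave the viability readout.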

Q: How did the drug sensitivity score turn out when Nc1nc(OCc2cc(Br)cs2)c2[nH]cnc2n1 [Lomeguatrib] was run?
A: 0

Q: Which drug sensitivity score does the source give for NC(=O)N1CCC(CC(=O)N2CCC([C@H]3c4ncc(Br)cc4CCc4cc(Cl)cc(Br)c43)CC2)CC1 [Lonafarnib] here?
A: 8.9

Q: How did the drug sensitivity score turn out when Cc1c(F)cc(C(=O)NC2CC2)cc1-c1ccc(C(=O)NCC(C)(C)C)cn1 [Losmapimod] was run?
A: 0

Q: How did the drug sensitivity score turn out when CC[C@H](C)C(=O)O[C@H]1C[C@@H](C)C=C2C=C[C@H](C)[C@H](CC[C@@H]3C[C@@H](O)CC(=O)O3)[C@H]21 [Lovastatin] was run?
A: 7.8

Q: How did the drug sensitivity score turn out when CNC(=O)c1cccc2cc(Oc3ccnc4cc(OCC5(N)CC5)c(OC)cc34)ccc12 [Lucitanib] was run?
A: 5.9

Q: How did the drug sensitivity score turn out when CCNC(=O)c1noc(-c2cc(C(C)C)c(O)cc2O)c1-c1ccc(CN2CCOCC2)cc1 [Luminespib] was run?
A: 23

Q: O=C(O)CC[C@H]1CC[C@@](c2cc(F)ccc2F)(S(=O)(=O)c2ccc(Cl)cc2)CC1 [MK-0752] was tested. Which drug sensitivity score did it give?
A: 0

Q: How did the drug sensitivity score turn out when NC1(c2ccc(-c3nc4ccn5c(=O)[nH]nc5c4cc3-c3ccccc3)cc2)CCC1 [MK-2206] was run?
A: 2.6

Q: With O=C(c1cccc(Cl)c1F)N1CCN(Cc2cccc(Nc3nccs3)n2)CC1 [MK-8745] as the compound, how does the drug sensitivity score read?
A: 3.5

Q: Which drug sensitivity score does the source give for Cn1cc(-c2cnn3c(N)c(Br)c([C@@H]4CCCNC4)nc23)cn1 [MK-8776] here?
A: 5.1

Q: With Cc1cnc(-c2ccccc2C(C)C)nc1NCc1ccc(-n2ccnn2)cc1 [ML323] as the compound, how does the drug sensitivity score read?
A: 0

Q: For O=C(CCNC(=O)c1ccc(OC(F)(F)F)cc1)N[C@@H]1CCCc2ccccc21 [ML390], which drug sensitivity score is on record?
A: 13.4

Q: How did the drug sensitivity score turn out when O=C(Nc1cccc(NC(=O)c2cccc(O)c2O)c1)c1cccc(O)c1O [MST-312] was run?
A: 10.5

Q: Which drug sensitivity score does the source give for CNC(=O)[C@@H](NC(=O)[C@H](CC(C)C)[C@H](O)C(=O)NO)C(C)(C)C [Marimastat] here?
A: 0

Q: Which drug sensitivity score does the source give for Cc1ccc(NC(=O)c2ccc(CN3CCN(C)CC3)cc2)cc1Nc1nc(-c2cccnc2)cs1 [Masitinib] here?
A: 1.3

Q: How did the drug sensitivity score turn out when CC(=O)O[C@]1(C(C)=O)CC[C@H]2[C@@H]3C=C(C)C4=CC(=O)CC[C@]4(C)[C@H]3CC[C@@]21C [Megestrol acetate] was run?
A: 0

test system: JHOS2; experiment: as above; conditions: exposure time: 72 h; concentration range: 5 concentrations over 10,000-fold range
Method in brief: as §1

Q: With CCC(C)n1ncn(-c2ccc(N3CCN(c4ccc(OCC5COC(Cn6cncn6)(c6ccc(Cl)cc6Cl)O5)cc4)CC3)cc2)c1=O (configuration not stated) [Itraconazole] as the compound, how does the drug sensitivity score read?
A: 0.2

Q: Which drug sensitivity score does the source give for N#Cc1ccnc(N2C(=O)CC[C@H]2C(=O)N(c2cncc(F)c2)[C@H](C(=O)NC2CC(F)(F)C2)c2ccccc2Cl)c1 [Ivosidenib] here?
A: 0

Q: Which drug sensitivity score does the source give for C/C(=C\c1csc(C)n1)[C@@H]1C[C@@H]2O[C@]2(C)CCC[C@H](C)[C@H](O)[C@@H](C)C(=O)C(C)(C)[C@@H](O)CC(=O)N1 [Ixabepilone] here?
A: 2.7

Q: CC(C)C[C@H](NC(=O)CNC(=O)c1cc(Cl)ccc1Cl)B(O)O [Ixazomib] was tested. Which drug sensitivity score did it give?
A: 10.6

Q: How did the drug sensitivity score turn out when Nc1cc(COc2c(Cl)cc(C[C@H](N)C(=O)O)cc2Cl)c2oc(-c3ccccc3)nc2c1 [JPH203] was run?
A: 0

Q: For CC(C)NC(=O)COc1cccc(-c2nc(Nc3ccc4[nH]ncc4c3)c3ccccc3n2)c1 [KD025], which drug sensitivity score is on record?
A: 1.2

Q: For CS(=O)(=O)CCNCc1ccc(-c2ccc3ncnc(Nc4ccc(OCc5cccc(F)c5)c(Cl)c4)c3c2)o1 [Lapatinib], which drug sensitivity score is on record?
A: 0

Q: Which drug sensitivity score does the source give for O=C(Nc1cnn2ccc(N3CCC[C@@H]3c3cc(F)ccc3F)nc12)N1CC[C@H](O)C1 [Larotrectinib] here?
A: 0

Q: With Oc1ccc2c(c1)CC[C@H](c1ccccc1)[C@@H]2c1ccc(OCCN2CCCC2)cc1 [Lasofoxifene] as the compound, how does the drug sensitivity score read?
A: 0

Q: With Nc1cccc2c1CN(C1CCC(=O)NC1=O)C2=O (configuration not stated) [Lenalidomide] as the compound, how does the drug sensitivity score read?
A: 0.1

Q: Which drug sensitivity score does the source give for COc1cc2nccc(Oc3ccc(NC(=O)NC4CC4)c(Cl)c3)c2cc1C(N)=O [Lenvatinib] here?
A: 0.1

Q: For N#Cc1ccc(C(c2ccc(C#N)cc2)n2cncn2)cc1 [Letrozole], which drug sensitivity score is on record?
A: 0

Q: Cc1ccc(F)c(NC(=O)Nc2ccc(-c3cccc4[nH]nc(N)c34)cc2)c1 [Linifanib] was tested. Which drug sensitivity score did it give?
A: 0

Q: With C[C@]1(O)C[C@@H](c2nc(-c3ccc4ccc(-c5ccccc5)nc4c3)c3c(N)nccn32)C1 [Linsitinib] as the compound, how does the drug sensitivity score read?
A: 0

Q: For CCNCCS(=O)(=O)NC[C@@]1(c2ccccc2)SC(NC(=O)C(C)(C)C)=NN1C(=O)C(C)(C)C [Litronesib], which drug sensitivity score is on record?
A: 6.1

Q: For Nc1nc(OCc2cc(Br)cs2)c2[nH]cnc2n1 [Lomeguatrib], which drug sensitivity score is on record?
A: 0

Q: How did the drug sensitivity score turn out when NC(=O)N1CCC(CC(=O)N2CCC([C@H]3c4ncc(Br)cc4CCc4cc(Cl)cc(Br)c43)CC2)CC1 [Lonafarnib] was run?
A: 8.4

Q: With Cc1c(F)cc(C(=O)NC2CC2)cc1-c1ccc(C(=O)NCC(C)(C)C)cn1 [Losmapimod] as the compound, how does the drug sensitivity score read?
A: 0

Q: CC[C@H](C)C(=O)O[C@H]1C[C@@H](C)C=C2C=C[C@H](C)[C@H](CC[C@@H]3C[C@@H](O)CC(=O)O3)[C@H]21 [Lovastatin] was tested. Which drug sensitivity score did it give?
A: 0

Q: With CNC(=O)c1cccc2cc(Oc3ccnc4cc(OCC5(N)CC5)c(OC)cc34)ccc12 [Lucitanib] as the compound, how does the drug sensitivity score read?
A: 0.4

Q: With CCNC(=O)c1noc(-c2cc(C(C)C)c(O)cc2O)c1-c1ccc(CN2CCOCC2)cc1 [Luminespib] as the compound, how does the drug sensitivity score read?
A: 18.8

Q: For O=C(O)CC[C@H]1CC[C@@](c2cc(F)ccc2F)(S(=O)(=O)c2ccc(Cl)cc2)CC1 [MK-0752], which drug sensitivity score is on record?
A: 0

Q: For NC1(c2ccc(-c3nc4ccn5c(=O)[nH]nc5c4cc3-c3ccccc3)cc2)CCC1 [MK-2206], which drug sensitivity score is on record?
A: 0

Q: How did the drug sensitivity score turn out when O=C(c1cccc(Cl)c1F)N1CCN(Cc2cccc(Nc3nccs3)n2)CC1 [MK-8745] was run?
A: 0

Q: Cn1cc(-c2cnn3c(N)c(Br)c([C@@H]4CCCNC4)nc23)cn1 [MK-8776] was tested. Which drug sensitivity score did it give?
A: 0

Q: With Cc1cnc(-c2ccccc2C(C)C)nc1NCc1ccc(-n2ccnn2)cc1 [ML323] as the compound, how does the drug sensitivity score read?
A: 0

Q: How did the drug sensitivity score turn out when O=C(CCNC(=O)c1ccc(OC(F)(F)F)cc1)N[C@@H]1CCCc2ccccc21 [ML390] was run?
A: 3.4

Q: With O=C(Nc1cccc(NC(=O)c2cccc(O)c2O)c1)c1cccc(O)c1O [MST-312] as the compound, how does the drug sensitivity score read?
A: 9.4

Q: How did the drug sensitivity score turn out when CNC(=O)[C@@H](NC(=O)[C@H](CC(C)C)[C@H](O)C(=O)NO)C(C)(C)C [Marimastat] was run?
A: 0

Q: How did the drug sensitivity score turn out when Cc1ccc(NC(=O)c2ccc(CN3CCN(C)CC3)cc2)cc1Nc1nc(-c2cccnc2)cs1 [Masitinib] was run?
A: 1.7

Q: How did the drug sensitivity score turn out when CC(=O)O[C@]1(C(C)=O)CC[C@H]2[C@@H]3C=C(C)C4=CC(=O)CC[C@]4(C)[C@H]3CC[C@@]21C [Megestrol acetate] was run?
A: 0
